“Also recorded” adds a separate entry of the source.
How the values were obtained:
colon = experiment: Niclosamide applied in vivo (ip or gavage), then colon perfusion and PAS staining; parameters: species or system mouse; settings: for ATP-induced release of mucus: three days before perfusion, 100 μM ATP
Experimental: FIG. 18: Effect of niclosamide on intestinal mucus release. • A) Acute mucus secretion in excised wt colon activated by methacholine or ATP, respectively, and inhibition by acute perfusion with niclosamide (niclosamide; 10 μM). • B-D) Effect of intraperitoneal injection of niclosamide (20 mg/kg/day) on PAS staining (B,C) and acute mucus discharge induced by perfusion with 100 μM ATP (D). • E-G) Effect of application of niclosamide by gavage (20 mg/kg/day) on PAS staining (E,F) and acute mucus discharge induced by perfusion with 100 μM ATP (G). Mean±SEM; #significant difference when compared to -niclosamide (unpaired t-test); (n) number of perfused colons and PAS stainings analyzed, respectively. Bars indicate 50 μm.
It was examined whether niclosamide inhibits intestinal mucus secretion. To this end, niclosamide was added to the perfusate. […] Niclosamide was applied in vivo by intraperitoneal (ip) injection, or was applied orally by gavage three days before intestinal perfusion. […] TMEM16F plays a crucial role for intracellular Ca^2+ signaling. The present inventors detected reduced Ca^2+ increase upon ATP-stimulation of freshly isolated crypt cells from Vil1-Cre TMEM16F^flox/flox mice. In contrast, CCH-induced Ca^2+ rise was not affected. […] Increase in FM4-64 fluorescence in the plasma membrane is a marker for membrane exocytosis. The present inventors detected that ATP-stimulation (but not cholinergic stimulation) of HEK293 cells expressing TMEM16F induced FM4-64 fluorescence, i.e. exocytosis.

excised wt colon = experiment: Acute mucus secretion in in vitro perfused excised colon, niclosamide in perfusate; parameters: species or system mouse; settings: niclosamide 10 μM in perfusate
From the text: Cholinergic stimulation released mucus from freshly isolated TMEM16A+/+ and TMEM16A−/− intestine (FIG. 6D-F). Mucus release was examined in more detail by perfusing freshly excised colon and collecting released mucus in vitro. For in vitro perfusion of intestines, mice were sacrificed and excised intestines were placed immediately in ice-cold Ringer solution and carefully flushed to remove residual luminal contents. The intestinal segments were mounted and perfused vertically in a custom-designed perfusion chamber with a constant temperature.
It was examined whether TMEM16F is also important for intestinal mucus secretion and acute mucus release was measured in freshly excised colonic segments mounted in a vertical custom-designed perfusion chamber at 37° C. and 24 mmol/1 HCO3^−/5% CO2. Secretion of mucus was induced by basolateral perfusion with methacholine (MCh) and by luminal perfusion of ATP. […]
It was examined whether niclosamide inhibits intestinal mucus secretion. […] The present inventors detected reduced Ca^2+ increase upon ATP-stimulation of freshly isolated crypt cells from Vil1-Cre TMEM16F^flox/flox mice. […] Increase in FM4-64 fluorescence in the plasma membrane is a marker for membrane exocytosis. The present inventors detected that ATP-stimulation (but not cholinergic stimulation) of HEK293 cells expressing TMEM16F induced FM4-64 fluorescence, i.e. exocytosis.

[1] = test system: Calu3 human airway epithelial cells; experiment: IL-13 induced MUC5AC expression in Calu3 cells; assay type: cell-based; settings: IL-13 stimulation
Experimental: (§1) Mouse models were performed according to the previous example. For investigating mucus, IL-8 release, and leukocytes, tissues were fixed using 4% paraformaldehyde (PFA), 0.2% picric acid and 3.4% sucrose in PBS and washed in methanol before embedding in paraffin. Mucus was analyzed using standard Periodic acid-Schiff (PAS) or alcian blue staining. MUC5AC was stained using anti-MUC5AC mouse antibody (1:200, Abcam, ab3649) and a secondary antibody conjugated with Alexa488 (Life Technologies, A-21206). Nuclei were stained with Hoe33342 (0.1 μg/ml PBS, Aplichem, Darmstadt, Germany). Quantikine ELISA kits (R&D systems) were used to measure secretion of the cytokine IL-8 by Calu3 cells.
Calu3 airway epithelial cells were exposed to LPS for 48 hrs and the release of the neutrophil attractor interleukin 8 (IL-8) was measured. […] Upon stimulation with the Th2 cytokine IL-13, Calu3 cells produced MUC5AC. […] Taken together, airway epithelial knockout of TMEM16A caused a defect in mucus secretion, while mucus production was retained (FIG. 16C).

[2] = test system: airways of OVA-sensitized mice; experiment: OVA-induced allergic airway inflammation in mice (alcian blue mucus staining, airway cross section, CD45 infiltration); assay type: in vivo, mouse
Experimental: Intestinal sections were collected for histological analyses. Mouse airways were fixed by transcardial fixation and were embedded in paraffin or were used as cryosections. For paraffin sections, tissues were fixed in 4% paraformaldehyde (PFA), 0.2% picric acid and 3.4% sucrose in PBS, and were washed in methanol before embedding in paraffin. Sections were stained according to standard Periodic acid-Schiff (PAS) or Alcian Blue methods and assessed by light microscopy.
as §1
All methods were performed as described in the previous examples. Mice were treated with ovalbumin (OVA) to induce an allergic reaction which leads to airway inflammation. […] After allergization with OVA and development of airway inflammation, excessive mucus production and inflammatory infiltration with immune cells is observed. Activation of cholinergic receptors using the muscarinic agonist carbachol (CCH) results in constriction of the airways and secretion of mucus (FIG. 5A-C). 3-day treatment using niclosamide reduced the CCH-induced constriction of the airways (FIG. 1). Furthermore, mucus secretion and inflammatory infiltrates were reduced.
OVA-induced allergic airway inflammation in mice caused pronounced airway goblet cell metaplasia. […] NFA is a well know inhibitor of Ca^2+ activated Cl^− channels and inhibits TMEM16A. The two main TMEM16 paralogs expressed in airway epithelial and smooth muscle cells, TMEM16A and TMEM16F, were expressed in HEK293 cells and the whole cell currents upon activation by the Ca^2+ ionophore ionomycin (Iono) were measured. […] Novel therapeutic strategies for the treatment of inflammatory airway diseases such as CF may therefore consider the use of inhibitors of TMEM16.
The present inventors disclose that airway epithelial knockout of TMEM16A causes a defect in basal, i.e. ATP-mediated mucus secretion. […] Mucus synthesis under inflammatory (OVA) conditions and mucus release upon cholinergic stimulation, however, were not compromised (FIG. 16C). […] Because basal mucus production still occurs in the absence of TMEM16A, other TMEM16 paralogs may also be in charge of mucus synthesis.

## O=C(Nc1ccc([N+](=O)[O-])cc1Cl)c1cc(Cl)ccc1O [niclosamide, 5-chloro-N-(2-chloro-4-nitrophenyl)-2-hydroxybenzamide]
colon; intraperitoneal injection 20 mg/kg/day
  ATP-induced release of mucus: completely inhibited
colon; ip or oral niclosamide
  mucus accumulation in goblet cells (PAS staining): did not accumulate
colon; oral by gavage 20 mg/kg/day
  ATP-induced release of mucus: completely inhibited
Excised wt colon
  mucus secretion activated by basolateral MCh: not
  mucus secretion activated by luminal ATP: clearly inhibited
[1]
  Muc5AC-expression: largely reduced
[2]; OVA-allergized mice, 3-day treatment
  inflammatory infiltrates: reduced
[2]; OVA-allergized mice, 3-day treatment, CCH
  mucus secretion: reduced
[2]; OVA-allergized mice, 3-day treatment, carbachol (CCH)
  CCH-induced constriction of the airways: reduces
[2]; OVA-sensitized TMEM16A+/+ and TMEM16A−/− mice, intratracheal for three days before CCH
  CCH-induced airway contraction: strongly attenuated
[2]; OVA-sensitized wt (TMEM16A+/+) and TMEM16A−/− mice, intratracheal for three days before CCH
  mucus synthesis / production: strongly reduced; also recorded: strongly attenuated
[2]; wt mice, tracheal instillation, niflumic acid 20 μM or niclosamide 5 μM
  OVA-induced mucus production: strongly reduced; also recorded: inhibited mucus production

Source: patent US20210283110A1, “COMPOUND FOR USE IN THE TREATMENT OF A DISEASE CHARACTERIZED BY DYSREGULATED MUCUS PRODUCTION AND/OR SECRETION” (UNIVERSITÄT REGENSBURG, priority 2018, published 2021)
